Legend:
[1] = Solution stability under photo irradiation (optical stability); format: physicochemical; conditions: 0.25 mM in 50 mM MES buffer (pH 6.5), under fluorescent lamp, temporal change in absorbance at 650 nm; FIG. 1
Method: Solution stability under photo irradiation was tested as follows. Each sample solution of Compound A, B, C and D according to the invention and DA-67 was prepared with 50 mM MES buffer (pH 6.5) in the concentration of 0.25 mM. Temporal change in the absorbance at 650 nm of each reagent prepared placed under fluorescent lamp was monitored.

[2] = Accelerated stability in the quantification of UA (uric acid); format: physicochemical; conditions: stored at 40° C., day 7, 14, 21 and 28; low concentration region of UA (2.1 mg/dL); FIG. 14
Method: At day 7, 14, 21 and 28, the reagents (wrapped with aluminum foil) stored in a chamber at 40° C. were taken out and brought back to room temperature. Also, the samples were taken out of a freezing chamber and naturally thawed at room temperature. They were mixed on a vortex mixer and used for the measurement. The absorbance was measurement similarly to the measurement of the linearity.

[3] = general statement on the conventional reagent; cited from earlier work

## CN(C)c1ccc2c(c1)Sc1cc(N(C)C)ccc1N2C(=O)NCCC(=O)O [Compound B]
[1]
  optical stability: DA-67 ≃Compound B according to the invention≈Compound C according to the invention<Compound A according to the invention<Compound D according to the invention
[2]
  order of accelerated stabilities: Compound A according to the invention>Compound D according to the invention≈DA-67>Compound B according to the invention>Compound C according to the invention

## CN(C)c1ccc2c(c1)Sc1cc(N(C)C)ccc1N2C(=O)NCCS(=O)(=O)O [Compound A]
[1]
  optical stability: DA-67 ≃Compound B according to the invention≈Compound C according to the invention<Compound A according to the invention<Compound D according to the invention
[2]
  order of accelerated stabilities: Compound A according to the invention>Compound D according to the invention≈DA-67>Compound B according to the invention>Compound C according to the invention

## CN(C)c1ccc2c(c1)Sc1cc(N(C)C)ccc1N2C(=O)NCC(=O)NCC(=O)O [Compound D]
[1]
  optical stability: DA-67 ≃Compound B according to the invention≈Compound C according to the invention<Compound A according to the invention<Compound D according to the invention
[2]
  order of accelerated stabilities: Compound A according to the invention>Compound D according to the invention≈DA-67>Compound B according to the invention>Compound C according to the invention

## CN(C)c1ccc2c(c1)Sc1cc(N(C)C)ccc1N2C(=O)NCC(=O)O [DA-67, reference compound]
[1]
  optical stability: DA-67 ≃Compound B according to the invention≈Compound C according to the invention<Compound A according to the invention<Compound D according to the invention
[3]
  solubility in water (stated drawback): poor solubility in water
[2]
  order of accelerated stabilities: Compound A according to the invention>Compound D according to the invention≈DA-67>Compound B according to the invention>Compound C according to the invention

Source: patent publication US10787571B2, “Oxidation color developable compound and oxidation color development reagent” (DOJINDO LABORATORIES, priority 2017, dated 2020)
